# In ChEMBL document CHEMBL1151179, “Isolation of salicin derivatives from Homalium cochinchinensis and their antiviral activities” (J Nat Prod, 2004):
# Assays:
# Type in all cases: functional, organism-based
# Human alphaherpesvirus 1 = test: Antiviral activity against HSV1
# Human alphaherpesvirus 2 = test: Antiviral activity against HSV2
# [1] = tested on: Human immunodeficiency virus 1; test: Antiviral activity against HIV1
Structure (SMILES),EC50 (Human alphaherpesvirus 1) [µM],EC50 (Human alphaherpesvirus 2) [µM],EC50 [1] [µM]
Nc1nc2c(ncn2COCCO)c(=O)[nH]1 [ACYCLOVIR],1.1,1,
O=C(O[C@H]1[C@H](Oc2c(O)cccc2COC(=O)C2(O)C=CCCC2=O)O[C@H](CO)[C@@H](O)[C@@H]1O)c1ccccc1 (stereo partly specified) [COCHINCHISIDE B],76,76,> 18
O=C1OC2=C[C@@H](O)CCC2=C1C(O)c1ccccc1 (stereo partly specified) [COCHINOLIDE],31,86,
O=c1[nH]cnc2c1ncn2[C@H]1CC[C@@H](CO)O1 [DIDANOSINE],,,2.1
O=C(O[C@H]1[C@H](Oc2ccccc2COC(=O)[C@]2(O)C=CCC[C@@H]2O)O[C@H](CO)[C@@H](O)[C@@H]1O)c1ccccc1 [TREMULACINOL],> 188,> 188,
O=C(O[C@H]1[C@H](Oc2ccccc2COC(=O)C2(O)C=CCCC2=O)O[C@H](CO)[C@@H](O)[C@@H]1O)c1ccccc1 (stereo partly specified) [TREMULACIN],87,86,52
O=C(O[C@H]1[C@H](Oc2ccccc2CO)O[C@H](CO)[C@@H](O)[C@@H]1O)c1ccccc1 [TREMULDIN],> 256,> 256,
Cc1cn([C@H]2C[C@H](N=[N+]=[N-])[C@@H](CO)O2)c(=O)[nH]c1=O [ZIDOVUDINE],,,0.02
